One molecule from patent US10730892B2, “Homoallylamines as formaldehyde-responsive triggers” (The Regents of the University of California, priority 2015, dated 2020) can be followed below.

Series [1] can be described thus: Fluorescence properties of compounds 3, 4, 5 and FP1 (Table 1). The class given is physicochemical. The source says:
Such red-shifted fluorophores are desirable because of low autofluorescence, minimal phototoxicity, and negligible interference from biomolecules when employed in live cell imaging. […] In the presence of FA, a reversible condensation event yielded an iminium intermediate which can undergo a charge-promoted [3,3]-sigmatropic rearrangement-hydrolysis sequence to expel the aryl nitro group and afford a highly fluorescent indole-3-carboxaldehyde product (ΦF=0.11) (Table 1). Of note, the aldehyde is strategically positioned at C3 such that after the reaction cascade, the N1 lone pair electrons can delocalize into the π-system rather than quench fluorescence via an acceptor-excited PeT (a-PeT) pathway. In this regard, silicon rhodol 3, without the carboxaldehyde, is non-fluorescent (Table 1).

The test system of series [2] is Neuroscreen-1 (NS1) cells. As for the experimental part:
FIG. 12 depicts live-cell imaging of NS1 cells. […] Cells were irradiated with the 633 nm HeNe laser set at 3% power with a pinhole size of 1 airy unit. The emission was collected between 645 and 800 nm. Scale bar represents 20 μm. Pseudo-coloring represents intensity distribution from highest intensity indicated by white to the lowest intensity designated by black.
FIG. 13 depicts quantification of observed fluorescence intensity by confocal imaging in NS1 cells after incubation with 1 mM, 2.5 mM or 5 mM FA for 1 (light grey bars), 2 (dark grey bars) and 3 h (black bars). A Ham's F-12K vehicle was added to control cells which was normalized to 1 (white bars). […] For each condition, a minimum of 5 images were averaged (n>5). Errors represent standard deviation.
FIG. 20 depicts quantification of data obtained from confocal microscopy images acquired by irradiation of NS1 cells treated with a vehicle control, 0.25 mM and 0.5 mM FA at 37° C. for 3 hrs with the 633 nm HeNe laser. […] For each condition, a minimum of 5 images were averaged (n>5). Errors represent standard deviation.
HEK293TN cells were obtained from Prof. Paul Hergenrother (UIUC, Chemistry) and cultured in phenol-red free Dulbecco's modified eagle medium (DMEM, Corning) supplemented with 10% fetal bovine serum (FBS, Sigma Aldrich), and 1% penicillin/streptomycin (Corning). Neuroscreen-1 cells were obtained from Prof. Kai Zhang (UIUC, Biochemistry) and cultured in Ham's F-12K medium (Sigma Aldrich) supplemented with 15% horse serum (Hyclone), 2.5% fetal bovine serum (FBS, Sigma Aldrich), and 1% penicillin/streptomycin (Corning). Cells were incubated at 37° C. and 5% CO2. One day before imaging, cells were passed and plated on 8-well chambered coverglasses (Lab-Tek) at a density of 40,000 cells per mL (or 20,000 cells per well). Cells would reach 70-80% confluency before imaging. […] Samples of HEK293TN and NS1 cells for flow cytometry were prepared by passaging and seeding each well of a 6-well cluster culture dish (Cyto-One) with 300,000 cells one day before experiments. […] Stained cells were aspirated and serum-free DMEM added. Subsequently, a 10× concentrated FA solution was added to give a final concentration of 1.0 mM. 2.5 mM and 5 mM. After incubation cells with FA, the media was removed and replaced with serum-free DMEM. Finally, cells were trypsinized, pelleted via centrifugation, resuspended in phosphate-buffered saline (PBS) for flow cytometric analysis.
Prior to imaging, cells were allowed to recover in FA-free buffer for 30 min. […] Because FA is a powerful fixative, cell viability assays were performed to determine the cytotoxicity of FA under experimental conditions. A dye exclusion protocol was employed, utilizing trypan blue to selectively stain and distinguish dead cells from those that were viable. […] To further verify that the cell populations under investigation were indeed alive, DAPI, a cell permeable nuclear and chromosome counterstain, was employed to identify intact nuclei (FIG. 16).
(§1) For example, semicarbazide-sensitive amine oxidase (SSAO) is primarily localized to the plasma membrane (Andres et al., J. Histochem. Cytochem. 2001, 49:209). Thus, both HEK293TN and NS1 cells were costained with ER-Tracker Green, LysoTracker Green DND-26, and MitoTracker Green FM, fluorescent indicators that are known to selectively stain the endoplasmic reticulum, lysosome, and mitochondria, respectively in almost all cell types (FIG. 17A and FIG. 17B).

The test system of series [3] is HEK293TN and NS1 cells. Conditions: 2 μM FP1, 1 μM tracker, both cell lines.
Description: Scale bar represents 20 μm.
as §1

Molecules are shown by their SMILES. Where two headings read alike, the source gives them in different places.

Take `C=CCC(NCc1ccc([N+](=O)[O-])cc1)c1cn(C)c2cc(C)c(C3=C4C=CC(=O)C=C4[Si](C)(C)c4c3cc3c5c4CCCN5CCC3)cc12` (stereo not shown) [FP1]: the “Φ (quantum efficiency, ΦF)” value in series [1] is given as “undetectable levels”. This molecule also showed a ε in series [1] of 29000 M⁻¹ cm⁻¹. For the same molecule, the λabs in series [1] is 620 nm. In series [1], this molecule returned a λem of 649 nm. The “fold fluorescence increase (time-lapse imaging)” value in series [2] (NS1, 1 μM FP1, on-stage addition of 1 mM FA at 25° C., 2 hrs) was determined as 1.3 fold. Further, the “fold increase in fluorescence intensity (confocal)” value in series [2] (NS1, 2 μM FP1, 1 mM FA, 1 hr) came out at 0 fold; in series [2] (NS1, 2 μM FP1, 1 mM FA, 2 hrs) it was 1.1 fold; in series [2] (NS1, 2 μM FP1, 1 mM FA, 3 hrs), 1.6 fold; in series [2] (NS1, 2 μM FP1, 2.5 mM FA, 1 hr) it was 1.3 fold; in series [2] (NS1, 2 μM FP1, 2.5 mM FA, 2 hrs), 1.5 fold; in series [2] (NS1, 2 μM FP1, 2.5 mM FA, 3 hrs), 2.0 fold. The “fold increase in fluorescence intensity (confocal)” value is given as 1.8 fold in series [2] (NS1, 2 μM FP1, 5 mM FA, 1 hr) and 2.0 fold in series [2] (NS1, 2 μM FP1, 5 mM FA, 2 hrs). The “fluorescence increase (confocal)” value in series [2] (NS1, 0.25 mM FA, 37° C., 3 hrs) is on record as 16%. For the same molecule, the “signal enhancement (confocal)” value in series [2] (NS1, 0.5 mM FA, 37° C., 3 hrs) is 38%. The “staining pattern (overlay with ER-Tracker Green)” value in series [3] was “stained the cytoplasm, as well as the endoplasmic reticulum”.
